Source: patent publication US8680132B2, “Spiro-oxindole MDM2 antagonists” (priority 2010, dated 2014)
Like-named read-outs stand apart in the source and are kept apart here. Blank lines part the entries; values can stand above or below the compound they belong to.

Tests used:
SJSA-1 (p53 wild-type) = test: Cell growth assay (WST-8); assay type: cell-based
PC-3 (deleted p53) = test: Cell growth assay (WST-8); assay type: cell-based; conditions: read-out: IC50 PC-3 (deleted p53)
[1] = target: recombinant human His-tagged MDM2 protein (residues 1-118) (Homo sapiens (Human), UniProt Q00987); test: Fluorescence-polarization MDM2 binding assay (Example 2); conditions: Table 2A; no unit in the cell (μM unless otherwise indicated)
LNCAP (p53 wild-type) = test: Cell growth assay (WST-8); assay type: cell-based, human
HCT-116 (p53—/—) = test: Cell growth assay (WST-8); assay type: cell-based
HCT-116 (p53 wild-type) = test: Cell growth assay (WST-8); assay type: cell-based, human
[2] = Homo sapiens, SJSA-1; read-out: IC50 SJSA-1 (p53 wild-type)
[3] = Homo sapiens, LNCaP; read-out: IC50 LNCAP (p53 wild-type)
[4] = Homo sapiens, HCT-116, read-out: IC50 HCT-116 (p53—/—)
[5] = Homo sapiens, HCT-116, read-out: IC50 HCT-116 (p53 wild-type)
[6] = Homo sapiens, LNCaP, read-out: IC50 LNCAP (p53 wild-type)

Sequence of recombinant human His-tagged MDM2 protein (residues 1-118) (Q00987 1-118): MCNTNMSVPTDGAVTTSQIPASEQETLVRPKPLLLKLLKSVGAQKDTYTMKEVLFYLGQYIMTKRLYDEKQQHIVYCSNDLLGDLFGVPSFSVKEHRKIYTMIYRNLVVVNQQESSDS

IC50 (SJSA-1 (p53 wild-type); [2]): 0.2 µM
IC50 (PC-3 (deleted p53)): 10.1 µM
IC50 [1]: < 0.1 µM
IC50 (LNCAP (p53 wild-type); [3]): 0.3 µM
SMILES: CC(C)(C)C[C@@H]1N[C@@H](C(=O)N[C@H]2C[C@@](C)(O)C2)[C@H](c2cccc(Cl)c2F)[C@]12C(=O)Nc1c2ccc(Cl)c1F

SMILES: CC(C)(C)C[C@@H]1N[C@@H](C(=O)NC2CCC(C)(O)CC2)[C@H](c2cccc(Cl)c2F)[C@]12C(=O)Nc1cc(Cl)ccc12 (stereo partly shown)
IC50 (HCT-116 (p53—/—); [4]): 10.6 µM
IC50 (SJSA-1 (p53 wild-type); Homo sapiens, SJSA-1, read-out: IC50 SJSA-1 (p53 wild-type)): 0.1 µM
IC50 (PC-3 (deleted p53)): 11.1 µM
IC50 (HCT-116 (p53 wild-type); [5]): 0.1 µM
IC50 (LNCAP (p53 wild-type); [6]): 0.2 µM

IC50 [1]: > 5 µM
SMILES: O=C(NC1CCC(O)CC1)[C@@H]1N[C@@H](c2ccccc2)[C@@]2(C(=O)Nc3cc(Cl)ccc32)[C@H]1Cc1ccccc1 (single isomer, unassigned) [CB083-Isomer B]

IC50 [1]: > 5 µM
SMILES: CC(C)(C)C[C@@H]1N[C@@H](C(=O)NC2CCC(O)CC2)[C@H](Cc2ccccc2)[C@]12C(=O)Nc1cc(Cl)ccc12 (single isomer, unassigned) [CB084-Isomer B]

IC50 [1]: < 0.5 µM
SMILES: O=C(NC1CCC(O)CC1)[C@@H]1N[C@@H](c2ccccc2)[C@@]2(C(=O)Nc3cc(Cl)ccc32)[C@H]1c1cccc(Cl)c1F (single isomer, unassigned) [CB087-Isomer B]

SMILES: CC(C)(C)C[C@H]1N[C@@H](C(=O)N[C@H]2C[C@@](C)(O)C2)[C@H](c2cccc(Cl)c2)[C@@]12C(=O)Nc1cc(F)c(F)cc12 [C035]
IC50 (HCT-116 (p53—/—); Homo sapiens, HCT-116; read-out: IC50 HCT-116 (p53—/—)): > 10 µM
IC50 (SJSA-1 (p53 wild-type); [2]): < 5 µM
IC50 (PC-3 (deleted p53)): > 10 µM
IC50 (HCT-116 (p53 wild-type); Homo sapiens, HCT-116; read-out: IC50 HCT-116 (p53 wild-type)): < 5 µM
IC50 [1]: < 3 µM
IC50 (LNCAP (p53 wild-type); [3]): < 5 µM

SMILES: CC(C)(C)C[C@@H]1N[C@@H](C(=O)N[C@H]2C[C@@](C)(O)C2)[C@H](c2cc(Cl)ccc2F)[C@]12C(=O)Nc1cc(Cl)ccc12 [C11701]
IC50 (HCT-116 (p53—/—); [4]): 21.8 µM
IC50 (PC-3 (deleted p53)): 19.6 µM
IC50 (HCT-116 (p53 wild-type); [5]): 1.4 µM
IC50 (LNCAP (p53 wild-type); [6]): 1.5 µM
